From article PMC7766220, “Design, Synthesis and Comprehensive Investigations of Pyrrolo[3,4-d]pyridazinone-Based 1,3,4-Oxadiazole as New Class of Selective COX-2 Inhibitors” (International Journal of Molecular Sciences, 2020)

How the values were obtained:
[1] = target: T1, Bovine Serum Albumin (BSA) (Bos taurus, UniProt P02769); experiment: intrinsic fluorescence quenching, excitation […] nm; assay type: binding; settings: 294 K, pH 7.4, no site marker, double-log
T1 construct: gene ALB

[2] = target: T2, COX-2 (Homo sapiens, UniProt P35354); experiment: colorimetric COX peroxidase assay, […] nm (Cayman […]); assay type: biochemical; settings: read-out: Cyclooxygenase Inhibition Assay IC50 [μM] / COX-2
T2 construct: gene PTGS2; docking used 4M11
T2 sequence (P35354 18-604): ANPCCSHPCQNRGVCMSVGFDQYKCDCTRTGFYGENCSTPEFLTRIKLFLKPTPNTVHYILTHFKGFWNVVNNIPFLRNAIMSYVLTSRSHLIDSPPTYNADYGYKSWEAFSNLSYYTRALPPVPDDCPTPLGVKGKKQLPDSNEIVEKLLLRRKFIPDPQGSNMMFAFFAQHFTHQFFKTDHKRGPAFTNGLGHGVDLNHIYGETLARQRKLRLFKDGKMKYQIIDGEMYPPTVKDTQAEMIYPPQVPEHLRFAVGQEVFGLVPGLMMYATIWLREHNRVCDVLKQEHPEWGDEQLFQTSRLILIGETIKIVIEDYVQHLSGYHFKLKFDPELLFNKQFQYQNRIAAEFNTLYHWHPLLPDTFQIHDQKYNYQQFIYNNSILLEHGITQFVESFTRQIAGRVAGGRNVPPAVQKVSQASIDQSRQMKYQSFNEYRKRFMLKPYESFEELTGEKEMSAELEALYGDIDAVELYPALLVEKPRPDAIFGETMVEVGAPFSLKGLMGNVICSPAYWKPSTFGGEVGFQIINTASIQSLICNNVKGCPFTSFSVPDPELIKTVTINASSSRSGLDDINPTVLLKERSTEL

[3] = unreliable (Table 5 rows of 5a and 5b are identical, likely a copying error)

T1 sequence (P02769 25-607): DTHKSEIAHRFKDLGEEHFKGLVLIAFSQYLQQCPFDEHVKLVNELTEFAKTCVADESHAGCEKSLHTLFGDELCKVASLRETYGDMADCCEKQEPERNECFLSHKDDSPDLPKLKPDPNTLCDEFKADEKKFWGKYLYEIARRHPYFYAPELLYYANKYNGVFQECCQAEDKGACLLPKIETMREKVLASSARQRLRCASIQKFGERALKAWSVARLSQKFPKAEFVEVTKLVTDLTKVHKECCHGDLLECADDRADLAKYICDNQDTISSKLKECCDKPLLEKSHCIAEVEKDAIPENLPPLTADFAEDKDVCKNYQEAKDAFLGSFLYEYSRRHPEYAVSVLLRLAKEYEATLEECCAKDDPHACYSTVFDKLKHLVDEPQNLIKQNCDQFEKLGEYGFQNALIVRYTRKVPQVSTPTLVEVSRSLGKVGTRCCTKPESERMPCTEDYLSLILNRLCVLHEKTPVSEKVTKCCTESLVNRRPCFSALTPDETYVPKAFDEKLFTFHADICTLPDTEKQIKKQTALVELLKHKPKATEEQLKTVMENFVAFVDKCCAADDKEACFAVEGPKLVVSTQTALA

Row | SMILES | Binding / Kb × 10^4 [dm^3.mol^-1] [1] | IC50 [2] | Binding / Kb × 10^4 [dm^3.mol^-1] [1, 3]
1 | Cc1c2c(OCc3nnc(SCC(=O)N4CCN(c5ncccn5)CC4)o3)nn(C)c(=O)c2c(C)n1-c1ccccc1 [6a, 3,5,7-trimethyl-1-[[2-[2-oxo-2-(4-pyrimidin-2-ylpiperazin-1-yl)ethyl]sulfanyl-1,3,4-oxadiazol-5-yl]methoxy]-6-phenyl-pyrrolo[3,4-d]pyridazin-4-one] | 7.24 × 10^4 dm^3·mol^−1 | 160 µM | 
2 | CCCCn1c(C)c2c(OCc3nnc(SCC(=O)N4CCN(c5ncccn5)CC4)o3)nn(C)c(=O)c2c1C [6b, 6-butyl-3,5,7-trimethyl-1-[[2-[2-oxo-2-(4-pyrimidin-2-ylpiperazin-1-yl)ethyl]sulfanyl-1,3,4-oxadiazol-5-yl]methoxy]pyrrolo[3,4-d]pyridazin-4-one] | 8.51 × 10^4 dm^3·mol^−1 | 371 µM | 
3 | CCCCn1c(C)c2c(OCc3nnc(SCC(=O)N4CCN(c5ccccc5)CC4)o3)nn(C)c(=O)c2c1C [5b, 6-butyl-3,5,7-trimethyl-1-[[2-[2-oxo-2-(4-phenylpiperazin-1-yl)ethyl]sulfanyl-1,3,4-oxadiazol-5-yl]methoxy]pyrrolo[3,4-d]pyridazin-4-one] |  | 257 µM | 12.30 × 10^4 dm^3·mol^−1
4 | Cc1c2c(OCc3nnc(SCC(=O)N4CCN(c5ccccc5)CC4)o3)nn(C)c(=O)c2c(C)n1-c1ccccc1 [5a, 3,5,7-trimethyl-1-[[2-[2-oxo-2-(4-phenylpiperazin-1-yl)ethyl]sulfanyl-1,3,4-oxadiazol-5-yl]methoxy]-6-phenyl-pyrrolo[3,4-d]pyridazin-4-one] |  | 659 µM | 12.30 × 10^4 dm^3·mol^−1
